# Measured values published in ChEMBL document CHEMBL6182870, “Synthesis and biological activity of 1H-pyrrolo[3,2-g]isoquinolines as Haspin kinase inhibitors” (Bioorg Med Chem, 2025).
# Assays:
# [1] = target: T1, Cyclin-dependent kinase 5/CDK5 activator 1 (Homo sapiens) (UniProt Q00535+Q15078); test: Inhibition of recombinant human CDK5/p25 extracted from bacteria using histone H1 as substrate assessed as enzyme residual activity at 1 uM incubated for 30 mins in presence of ATP by ADP-Glo kinase assay relative to control; assay type: protein-complex assay
# T1 sequence (Q00535 whole entry): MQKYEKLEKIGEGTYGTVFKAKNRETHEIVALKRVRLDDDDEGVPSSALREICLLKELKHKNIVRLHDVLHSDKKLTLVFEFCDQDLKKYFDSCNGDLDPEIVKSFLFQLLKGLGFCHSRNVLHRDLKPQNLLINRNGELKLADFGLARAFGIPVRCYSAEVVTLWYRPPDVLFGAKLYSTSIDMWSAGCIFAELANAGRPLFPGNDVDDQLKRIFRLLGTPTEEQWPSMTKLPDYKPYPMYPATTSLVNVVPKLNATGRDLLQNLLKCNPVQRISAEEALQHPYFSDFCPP
# T1 sequence (Q15078 99-307 partner limits assumed): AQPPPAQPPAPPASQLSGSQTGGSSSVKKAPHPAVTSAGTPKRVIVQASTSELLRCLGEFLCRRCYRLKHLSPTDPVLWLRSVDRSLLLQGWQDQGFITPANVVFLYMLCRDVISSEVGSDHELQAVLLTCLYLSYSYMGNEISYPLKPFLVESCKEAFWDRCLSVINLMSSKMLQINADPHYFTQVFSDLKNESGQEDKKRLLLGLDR
# [2] = target: T2, Serine/threonine-protein kinase pim-1 (Homo sapiens, UniProt P11309); test: Inhibition of recombinant human PIM-1 extracted from bacteria using histone H1 as substrate assessed as enzyme residual activity at 10 uM incubated for 30 mins in presence of ATP by ADP-Glo kinase assay relative to control
# Target sequence in this assay (P11309 whole entry, looked up, the tested form may be a part): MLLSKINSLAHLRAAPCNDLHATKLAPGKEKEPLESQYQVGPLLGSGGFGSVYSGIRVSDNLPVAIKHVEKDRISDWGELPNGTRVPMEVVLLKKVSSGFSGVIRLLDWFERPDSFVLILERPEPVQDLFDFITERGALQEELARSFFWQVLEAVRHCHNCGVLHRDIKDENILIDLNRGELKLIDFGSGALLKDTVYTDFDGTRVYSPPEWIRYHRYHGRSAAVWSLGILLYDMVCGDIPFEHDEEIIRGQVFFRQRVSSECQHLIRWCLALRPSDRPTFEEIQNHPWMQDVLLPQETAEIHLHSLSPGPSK
# [3] = target: Dual specificity tyrosine-phosphorylation-regulated kinase 1A (Rattus norvegicus) (UniProt Q63470); test: Inhibition of recombinant rat DYRK1A kinase domain (1 to 499 residues) extracted from bacteria using KKISGRLSPIMTEQ as substrate assessed as enzyme residual activity at 1 uM incubated for 30 mins in presence of ATP by ADP-Glo kinase assay relative to control
# [4] = Inhibition of recombinant human CDK9/Cyclin T extracted from baculovirus infected Sf9 cells using YSPTSPSYSPTSPSYSPTSPSKKKK as substrate assessed as enzyme residual activity at 1 uM incubated for 30 mins in presence of ATP by ADP-Glo kinase assay relative to control
# [5] = target: Dual specificity tyrosine-phosphorylation-regulated kinase 1A (Rattus norvegicus) (UniProt Q63470); test: Inhibition of recombinant rat DYRK1A kinase domain (1 to 499 residues) extracted from bacteria using KKISGRLSPIMTEQ as substrate assessed as enzyme residual activity at 10 uM incubated for 30 mins in presence of ATP by ADP-Glo kinase assay relative to control
# [6] = target: Casein kinase I isoform epsilon (Homo sapiens) (UniProt P49674); test: Inhibition of recombinant human CK1epsilon extracted from baculovirus infected Sf9 cells using RRKHAAIGSpAYSITA peptide as substrate assessed as enzyme residual activity at 10 uM incubated for 30 mins in presence of ATP by ADP-Glo kinase assay relative to control
# Sequence of Casein kinase I isoform epsilon (Homo sapiens) (P49674 whole entry, looked up, the tested form may be a part, canonical isoform): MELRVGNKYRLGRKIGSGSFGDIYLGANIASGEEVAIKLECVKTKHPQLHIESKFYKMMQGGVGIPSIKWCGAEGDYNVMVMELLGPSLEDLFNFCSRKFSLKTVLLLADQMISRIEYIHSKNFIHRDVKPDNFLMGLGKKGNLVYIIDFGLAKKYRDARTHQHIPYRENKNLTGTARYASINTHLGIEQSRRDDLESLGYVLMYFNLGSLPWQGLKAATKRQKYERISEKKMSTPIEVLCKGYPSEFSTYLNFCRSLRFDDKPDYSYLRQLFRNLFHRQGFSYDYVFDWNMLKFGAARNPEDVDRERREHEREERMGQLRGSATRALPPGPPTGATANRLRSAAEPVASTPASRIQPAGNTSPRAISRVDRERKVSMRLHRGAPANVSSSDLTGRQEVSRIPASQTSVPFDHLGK
# [7] = target: Dual specificity protein kinase CLK1 (Mus musculus) (UniProt P22518); test: Inhibition of recombinant mouse CLK1 extracted from bacteria using GRSRSRSRSRSR as substrate assessed as enzyme residual activity at 1 uM incubated for 30 mins in presence of ATP by ADP-Glo kinase assay relative to control
# Sequence of Dual specificity protein kinase CLK1 (Mus musculus) (P22518 whole entry, looked up, the tested form may be a part): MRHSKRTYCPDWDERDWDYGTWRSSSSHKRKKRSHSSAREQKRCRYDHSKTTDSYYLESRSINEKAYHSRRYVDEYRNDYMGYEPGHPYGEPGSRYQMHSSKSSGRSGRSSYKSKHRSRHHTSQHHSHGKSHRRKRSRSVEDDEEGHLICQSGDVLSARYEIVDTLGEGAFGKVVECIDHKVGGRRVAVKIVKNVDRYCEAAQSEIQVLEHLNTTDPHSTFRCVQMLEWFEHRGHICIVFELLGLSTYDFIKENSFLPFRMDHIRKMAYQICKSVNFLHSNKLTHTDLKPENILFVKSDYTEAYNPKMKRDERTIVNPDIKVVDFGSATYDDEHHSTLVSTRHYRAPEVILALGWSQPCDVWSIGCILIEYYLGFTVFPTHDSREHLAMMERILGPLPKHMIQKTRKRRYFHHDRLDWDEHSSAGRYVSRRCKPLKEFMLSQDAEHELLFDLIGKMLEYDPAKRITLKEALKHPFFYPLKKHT
# [8] = target: T3, Serine/threonine-protein kinase haspin (Homo sapiens) (UniProt Q8TF76); test: Inhibition of recombinant human haspin kinase domain (470 to 798 residues) extracted from bacteria using histone H3 (1 to 21) peptide as substrate assessed as residual activity at 10 uM incubated for 30 mins in presence of ATP by ADP-Glo kinase assay relative to control
# T3 sequence (whole entry): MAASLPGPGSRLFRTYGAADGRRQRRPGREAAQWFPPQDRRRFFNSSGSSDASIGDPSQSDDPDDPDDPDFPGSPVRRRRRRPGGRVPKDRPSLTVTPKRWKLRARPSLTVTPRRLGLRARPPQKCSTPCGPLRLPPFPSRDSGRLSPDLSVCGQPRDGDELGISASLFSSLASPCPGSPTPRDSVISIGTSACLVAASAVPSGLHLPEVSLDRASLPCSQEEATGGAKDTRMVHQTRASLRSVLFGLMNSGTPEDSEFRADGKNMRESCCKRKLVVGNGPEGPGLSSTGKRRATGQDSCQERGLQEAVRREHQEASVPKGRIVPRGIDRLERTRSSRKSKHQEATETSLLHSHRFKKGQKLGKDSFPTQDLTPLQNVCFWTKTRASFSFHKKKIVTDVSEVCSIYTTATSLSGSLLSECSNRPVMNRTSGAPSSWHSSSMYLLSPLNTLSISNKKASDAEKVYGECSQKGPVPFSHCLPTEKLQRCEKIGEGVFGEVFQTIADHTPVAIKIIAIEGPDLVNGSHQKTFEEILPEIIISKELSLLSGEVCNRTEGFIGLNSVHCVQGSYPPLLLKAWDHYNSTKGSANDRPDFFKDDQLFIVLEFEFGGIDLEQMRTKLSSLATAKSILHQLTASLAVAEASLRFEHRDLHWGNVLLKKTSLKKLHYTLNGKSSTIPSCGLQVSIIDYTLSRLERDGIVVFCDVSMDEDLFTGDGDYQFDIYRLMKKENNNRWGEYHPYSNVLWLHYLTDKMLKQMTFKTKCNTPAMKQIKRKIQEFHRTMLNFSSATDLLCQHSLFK
# [9] = Inhibition of recombinant human CDK9/Cyclin T extracted from baculovirus infected Sf9 cells using YSPTSPSYSPTSPSYSPTSPSKKKK as substrate assessed as enzyme residual activity at 10 uM incubated for 30 mins in presence of ATP by ADP-Glo kinase assay relative to control
# [10] = target: Dual specificity protein kinase CLK1 (Mus musculus) (UniProt P22518); test: Inhibition of recombinant mouse CLK1 extracted from bacteria using GRSRSRSRSRSR as substrate assessed as enzyme residual activity at 10 uM incubated for 30 mins in presence of ATP by ADP-Glo kinase assay relative to control
# [11] = target: Glycogen synthase kinase-3 beta (Homo sapiens) (UniProt P49841); test: Inhibition of recombinant human GSK3beta extracted from baculovirus infected Sf9 cells using GS-1 (YRRAAVPPSPSLSRHSSPHQSpEDEEE) peptide as substrate assessed as enzyme residual activity at 10 uM incubated for 30 mins in presence of ATP by ADP-Glo kinase assay relative to control
# Sequence of Glycogen synthase kinase-3 beta (Homo sapiens) (P49841 whole entry, looked up): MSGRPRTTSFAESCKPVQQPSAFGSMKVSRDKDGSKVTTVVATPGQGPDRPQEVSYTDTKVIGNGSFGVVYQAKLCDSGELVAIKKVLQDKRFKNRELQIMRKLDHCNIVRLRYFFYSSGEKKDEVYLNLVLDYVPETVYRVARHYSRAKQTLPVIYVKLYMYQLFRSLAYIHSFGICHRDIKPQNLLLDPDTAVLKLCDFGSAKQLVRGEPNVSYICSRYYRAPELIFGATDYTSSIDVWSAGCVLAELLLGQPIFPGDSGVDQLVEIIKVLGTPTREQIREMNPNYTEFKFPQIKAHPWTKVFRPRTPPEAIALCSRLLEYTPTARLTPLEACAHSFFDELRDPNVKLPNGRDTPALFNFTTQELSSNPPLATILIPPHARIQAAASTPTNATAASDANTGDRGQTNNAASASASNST
# [12] = target: T1, Cyclin-dependent kinase 5/CDK5 activator 1 (Homo sapiens); test: Inhibition of recombinant human CDK5/p25 extracted from bacteria using histone H1 as substrate assessed as enzyme residual activity at 10 uM incubated for 30 mins in presence of ATP by ADP-Glo kinase assay relative to control; assay type: protein-complex assay
# [13] = target: Casein kinase I isoform epsilon (Homo sapiens) (UniProt P49674); test: Inhibition of recombinant human CK1epsilon extracted from baculovirus infected Sf9 cells using RRKHAAIGSpAYSITA peptide as substrate assessed as enzyme residual activity at 1 uM incubated for 30 mins in presence of ATP by ADP-Glo kinase assay relative to control
# [14] = target: T3, Serine/threonine-protein kinase haspin (Homo sapiens); test: Inhibition of recombinant human haspin kinase domain (470 to 798 residues) extracted from bacteria using histone H3 (1 to 21) peptide as substrate assessed as residual activity at 1 uM incubated for 30 mins in presence of ATP by ADP-Glo kinase assay relative to control
# [15] = target: Glycogen synthase kinase-3 beta (Homo sapiens) (UniProt P49841); test: Inhibition of recombinant human GSK3beta extracted from baculovirus infected Sf9 cells using GS-1 (YRRAAVPPSPSLSRHSSPHQSpEDEEE) peptide as substrate assessed as enzyme residual activity at 1 uM incubated for 30 mins in presence of ATP by ADP-Glo kinase assay relative to control
# [16] = target: T2, Serine/threonine-protein kinase pim-1; test: Inhibition of recombinant human PIM-1 extracted from bacteria using histone H1 as substrate assessed as enzyme residual activity at 1 uM incubated for 30 mins in presence of ATP by ADP-Glo kinase assay relative to control
# Target sequence in this assay (P11309 whole entry, looked up, the tested form may be a part): as the sequence (P11309 whole entry, looked up, the tested form may be a part) above
# [17] = target: Dual specificity protein kinase CLK1 (Mus musculus, UniProt P22518); test: Inhibition of recombinant mouse CLK1 extracted from bacteria using GRSRSRSRSRSR as substrate incubated for 30 mins in presence of ATP by ADP-Glo kinase assay
# Sequence of Dual specificity protein kinase CLK1 (P22518 whole entry, the tested form may be a part): as the sequence (P22518 whole entry, looked up, the tested form may be a part) above
# [18] = target: Dual specificity tyrosine-phosphorylation-regulated kinase 1A (Rattus norvegicus, UniProt Q63470); test: Inhibition of recombinant rat DYRK1A kinase domain (1 to 499 residues) extracted from bacteria using KKISGRLSPIMTEQ as substrate incubated for 30 mins in presence of ATP by ADP-Glo kinase assay
# HCT-116 = test: Antiproliferative activity against human HCT-116 cells assessed as inhibition of cell viability incubated for 48 hrs by MTS assay; assay type: functional, cell-based; settings: HCT-116, 48 h
# U2OS = test: Antiproliferative activity against human U2OS cells assessed as inhibition of cell viability incubated for 48 hrs by MTS assay; assay type: functional, cell-based
# HBL-100 = test: Antiproliferative activity against human HBL-100 cells assessed as inhibition of cell viability incubated for 48 hrs by MTS assay; assay type: functional, cell-based; settings: HBL-100, 48 h
# [19] = Cytotoxicity against human hTERT-RPE1 cells assessed as effect on cell viability incubated for 48 hrs by MTS assay; assay type: toxicity, cell-based, TERT-RPE1
# [20] = target: T2, Serine/threonine-protein kinase pim-1; test: Inhibition of recombinant human PIM-1 extracted from bacteria using histone H1 as substrate incubated for 30 mins in presence of ATP by ADP-Glo kinase assay
# Target sequence in this assay (P11309 whole entry, the tested form may be a part): as the sequence (P11309 whole entry, looked up, the tested form may be a part) above
# SH-SY5Y = test: Antiproliferative activity against human SH-SY5Y cells assessed as inhibition of cell viability incubated for 48 hrs by MTS assay; assay type: functional, cell-based
# [21] = target: T4, Serine/threonine-protein kinase haspin (Homo sapiens, UniProt Q8TF76); test: Inhibition of recombinant human haspin kinase domain (470 to 798 residues) extracted from bacteria using histone H3 (1 to 21) peptide as substrate incubated for 30 mins in presence of ATP by ADP-Glo kinase assay
# T4 sequence (Q8TF76 whole entry): T3 sequence (whole entry)
# [22] = target: T3, Serine/threonine-protein kinase haspin (Homo sapiens); test: Inhibition of haspin in human U2OS cells assessed as at 5 uM incubated for 16 hrs by DAPI staining based immunofluorescence analysis relative to control; assay type: cell-based
Compound,Activity [1],Activity [2],Activity [3],Activity [4],Activity [5],Activity [6],Activity [7],Activity [8],Activity [9],Activity [10],Activity [11],Activity [12],Activity [13],Activity [14],Activity [15],Activity [16],further results
O=C1CCC(N2C(=O)c3cccc(NCCOCCOCCOCCn4ccc5cc6ccncc6cc54)c3C2=O)C(=O)N1 (stereo unspecified),100%,86%,100%,91%,87%,97%,100%,83%,88%,94%,81%,100%,100%,95%,93%,95%,
Cn1cc(-c2cccnc2)c2cc3ccncc3cc21,79%,54%,33%,81%,12%,65%,18%,3%,39%,7%,34%,75%,94%,9%,69%,45%,IC50 [17]: 177 nM; IC50 [18]: 498 nM; EC50 (HCT-116): 15000 nM; EC50 (U2OS): 11500 nM; EC50 (HBL-100): 26900 nM; EC50 at 48 h [19]: 17800 nM; IC50 [20]: 876 nM; EC50 (SH-SY5Y): 17700 nM; IC50 [21]: 31.7 nM; inhibition [22]: No effect
c1cc2cc3c(cc2cn1)NCC3,89%,70%,68%,75%,66%,96%,98%,28%,62%,80%,80%,88%,92%,66%,78%,65%,
c1cc2c(ccc3cc[nH]c32)cn1,77%,38%,50%,59%,31%,94%,80%,9%,45%,43%,76%,63%,95%,39%,82%,64%,IC50 [21]: 258 nM
O=C1CCC(N2C(=O)c3cccc(NCCOCCOCCOCCn4cc(I)c5cc6ccncc6cc54)c3C2=O)C(=O)N1 (stereo unspecified),,,,,,,,100%,,,,,,80%,,,
Cn1cc(-c2ccccn2)c2cc3ccncc3cc21,100%,38%,63%,77%,23%,89%,73%,7%,49%,36%,53%,100%,100%,25%,67%,74%,IC50 [21]: 173 nM
O=C1CCC(N2C(=O)c3cccc(NCCOCCOCCOCCn4cc(-c5ccncc5)c5cc6ccncc6cc54)c3C2=O)C(=O)N1 (stereo unspecified),100%,64%,90%,97%,64%,84%,100%,71%,96%,89%,81%,100%,99%,67%,84%,74%,
O=C1CCC(N2C(=O)c3cccc(NCCOCCOCCOCCn4cc(Cl)c5cc6ccncc6cc54)c3C2=O)C(=O)N1 (stereo unspecified),,,,,,,,90%,,,,,,78%,,,
O=C1CCC(N2C(=O)c3cccc(NCCOCCOCCOCCn4cc(-c5cccnc5)c5cc6ccncc6cc54)c3C2=O)C(=O)N1 (stereo unspecified),100%,66%,65%,91%,74%,91%,90%,71%,81%,79%,74%,100%,100%,70%,86%,61%,
O=C1CCC(N2C(=O)c3cccc(NCCOCCOCCOCCNC(=O)c4c[nH]c5cc6cnccc6cc45)c3C2=O)C(=O)N1 (stereo unspecified),100%,75%,90%,100%,84%,99%,97%,60%,86%,97%,85%,100%,100%,74%,82%,67%,
O=C1CCC(N2C(=O)c3cccc(NCCOCCOCCOCCn4cc(Br)c5cc6ccncc6cc54)c3C2=O)C(=O)N1 (stereo unspecified),,,,,,,,86%,,,,,,98%,,,
